Key:
Assay in all cases: relative viability (nuclei count vs DMSO), 5 days (fraction); higher = more cells survive
LXF-289 = tested on: LXF-289
In short: (§1)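 Nuclei were stained with Hoechst during a one-step fixation (final 0.05% Triton X-100, 1% formaldehyde, 1 ug/ml Hoechst) carried out 5 days after dosing, then counted on 4× images. The cells, lung cancer lines in 1536-well plates, had been dosed by pin tool the day after seeding with one drug alone or a fixed anchor-drug dose plus five library-drug doses (not always all listed) in √10 steps. Relative viability is the nuclei count in treated wells divided by that in vehicle wells, and each value is the median of duplicate plates.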

NCI-H1355 = tested on: NCI-H1355
In short: as §1

NCI-H1563 = tested on: NCI-H1563
In short: as §1

NCI-H1651 = tested on: NCI-H1651
In short: as §1

NCI-H1755 = tested on: NCI-H1755
In short: as §1

NCI-H1792 = tested on: NCI-H1792
In short: as §1

NCI-H1915 = tested on: NCI-H1915
In short: as §1

NCI-H2170 = tested on: NCI-H2170
In short: as §1

NCI-H2347 = tested on: NCI-H2347
In short: as §1

NCI-H3122 = tested on: NCI-H3122
In short: as §1

NCI-H322M = tested on: NCI-H322M
In short: as §1

NCI-H460 = tested on: NCI-H460
In short: as §1

NCI-H520 = tested on: NCI-H520
In short: as §1

NCI-H596 = tested on: NCI-H596
In short: as §1

NCI-H650 = tested on: NCI-H650
In short: as §1

NCI-H661 = tested on: NCI-H661
In short: as §1

NCI-H727 = tested on: NCI-H727
In short: as §1

PC-14 = tested on: PC-14
In short: as §1

RERF-LC-KJ = tested on: RERF-LC-KJ
In short: as §1

SK-MES-1 = tested on: SK-MES-1
In short: as §1

Compound COc1cc(N2CCC(C(N)=O)CC2)ccc1Nc1nc(N)c(Cl)c(Nc2ccccc2S(=O)(=O)C(C)C)n1 [HG-5-88-01] + CS(=O)(=O)CCNCc1ccc(-c2ccc3ncnc(Nc4ccc(OCc5cccc(F)c5)c(Cl)c4)c3c2)o1 [Lapatinib] (partner 2 µM) has a relative viability (LXF-289; first compound 0.04 µM) of 0.913, a relative viability (LXF-289; first compound 0.1265 µM) of 0.904 and a relative viability (LXF-289; first compound 0.4 µM) of 0.883. The relative viability (LXF-289; first compound 1.265 µM) was 0.928, the relative viability (LXF-289; first compound 4 µM) was 0.867 and the relative viability (NCI-H1355; first compound 0.04 µM) was 1.08. It also gave a relative viability (NCI-H1355; first compound 0.1265 µM) of 1.04, a relative viability (NCI-H1355; first compound 0.4 µM) of 0.832 and a relative viability (NCI-H1355; first compound 1.265 µM) of 0.917. The relative viability (NCI-H1355; first compound 4 µM) was 0.623, the relative viability (NCI-H1563; first compound 0.04 µM) was 0.872 and the relative viability (NCI-H1563; first compound 0.1265 µM) was 0.941. The relative viability (NCI-H1563; first compound 0.4 µM) was 1.03, the relative viability (NCI-H1563; first compound 1.265 µM) was 0.882 and the relative viability (NCI-H1563; first compound 4 µM) was 1.24. It also gave a relative viability (NCI-H1651; first compound 0.04 µM) of 0.955, a relative viability (NCI-H1651; first compound 0.1265 µM) of 1 and a relative viability (NCI-H1651; first compound 0.4 µM) of 0.796. For the same compound, the relative viability (NCI-H1651; first compound 1.265 µM) was 0.863, the relative viability (NCI-H1651; first compound 4 µM) was 0.882 and the relative viability (NCI-H1755; first compound 0.1265 µM) was 1.04. It also gave a relative viability (NCI-H1755; first compound 0.4 µM) of 0.986, a relative viability (NCI-H1755; first compound 1.265 µM) of 1.02 and a relative viability (NCI-H1755; first compound 4 µM) of 1.15. The relative viability (NCI-H1792; first compound 0.04 µM) was 0.792, the relative viability (NCI-H1792; first compound 0.1265 µM) was 0.892 and the relative viability (NCI-H1792; first compound 0.4 µM) was 0.864. The relative viability (NCI-H1792; first compound 1.265 µM) was 0.879, the relative viability (NCI-H1792; first compound 4 µM) was 0.888 and the relative viability (NCI-H1915; first compound 0.04 µM) was 0.958. It also gave a relative viability (NCI-H1915; first compound 0.1265 µM) of 1, a relative viability (NCI-H1915; first compound 0.4 µM) of 0.977 and a relative viability (NCI-H1915; first compound 1.265 µM) of 1. It also gave a relative viability (NCI-H1915; first compound 4 µM) of 0.698, a relative viability (NCI-H2170; first compound 0.04 µM) of 0.247 and a relative viability (NCI-H2170; first compound 0.1265 µM) of 0.275. It also gave a relative viability (NCI-H2170; first compound 0.4 µM) of 0.251, a relative viability (NCI-H2170; first compound 1.265 µM) of 0.267 and a relative viability (NCI-H2170; first compound 4 µM) of 0.251. The relative viability (NCI-H2347; first compound 0.04 µM) was 1.02, the relative viability (NCI-H2347; first compound 0.1265 µM) was 0.947 and the relative viability (NCI-H2347; first compound 0.4 µM) was 0.896. It also gave a relative viability (NCI-H2347; first compound 1.265 µM) of 1.01, a relative viability (NCI-H2347; first compound 4 µM) of 0.887 and a relative viability (NCI-H3122; first compound 0.04 µM) of 0.763. For the same compound, the relative viability (NCI-H3122; first compound 0.1265 µM) was 0.357, the relative viability (NCI-H3122; first compound 0.4 µM) was 0.281 and the relative viability (NCI-H3122; first compound 1.265 µM) was 0.221. It also gave a relative viability (NCI-H3122; first compound 4 µM) of 0.2, a relative viability (NCI-H322M; first compound 0.04 µM) of 0.583 and a relative viability (NCI-H322M; first compound 0.1265 µM) of 0.428. It also gave a relative viability (NCI-H322M; first compound 0.4 µM) of 0.492, a relative viability (NCI-H322M; first compound 1.265 µM) of 0.501 and a relative viability (NCI-H322M; first compound 4 µM) of 0.485. For the same compound, the relative viability (NCI-H460; first compound 0.04 µM) was 0.963, the relative viability (NCI-H460; first compound 0.1265 µM) was 0.981 and the relative viability (NCI-H460; first compound 0.4 µM) was 0.871. The relative viability (NCI-H460; first compound 1.265 µM) was 0.996, the relative viability (NCI-H460; first compound 4 µM) was 0.302 and the relative viability (NCI-H520; first compound 0.04 µM) was 0.825. It also gave a relative viability (NCI-H520; first compound 0.1265 µM) of 0.896, a relative viability (NCI-H520; first compound 0.4 µM) of 0.401 and a relative viability (NCI-H520; first compound 1.265 µM) of 0.813. The relative viability (NCI-H520; first compound 4 µM) was 0.795, the relative viability (NCI-H596; first compound 0.04 µM) was 0.956 and the relative viability (NCI-H596; first compound 0.1265 µM) was 1.03. It also gave a relative viability (NCI-H596; first compound 0.4 µM) of 1.06, a relative viability (NCI-H596; first compound 1.265 µM) of 1.12 and a relative viability (NCI-H596; first compound 4 µM) of 0.781. The relative viability (NCI-H650; first compound 0.04 µM) was 0.962, the relative viability (NCI-H650; first compound 0.1265 µM) was 1.01 and the relative viability (NCI-H650; first compound 0.4 µM) was 1.14. For the same compound, the relative viability (NCI-H650; first compound 1.265 µM) was 0.943, the relative viability (NCI-H650; first compound 4 µM) was 0.475 and the relative viability (NCI-H661; first compound 0.04 µM) was 0.505. It also gave a relative viability (NCI-H661; first compound 0.1265 µM) of 0.518, a relative viability (NCI-H661; first compound 0.4 µM) of 0.487 and a relative viability (NCI-H661; first compound 4 µM) of 0.542. It also gave a relative viability (NCI-H727; first compound 0.04 µM) of 0.834, a relative viability (NCI-H727; first compound 0.1265 µM) of 0.93 and a relative viability (NCI-H727; first compound 0.4 µM) of 0.669. It also gave a relative viability (NCI-H727; first compound 1.265 µM) of 0.583, a relative viability (NCI-H727; first compound 4 µM) of 0.39 and a relative viability (PC-14; first compound 0.04 µM) of 0.358. The relative viability (PC-14; first compound 0.1265 µM) was 0.307, the relative viability (PC-14; first compound 0.4 µM) was 0.242 and the relative viability (PC-14; first compound 1.265 µM) was 0.267. For the same compound, the relative viability (PC-14; first compound 4 µM) was 0.25, the relative viability (RERF-LC-KJ; first compound 0.04 µM) was 0.833 and the relative viability (RERF-LC-KJ; first compound 0.1265 µM) was 0.774. It also gave a relative viability (RERF-LC-KJ; first compound 0.4 µM) of 0.826, a relative viability (RERF-LC-KJ; first compound 1.265 µM) of 0.876 and a relative viability (RERF-LC-KJ; first compound 4 µM) of 0.839. The relative viability (SK-MES-1; first compound 0.04 µM) was 0.442, the relative viability (SK-MES-1; first compound 0.1265 µM) was 0.453 and the relative viability (SK-MES-1; first compound 0.4 µM) was 0.407. The relative viability (SK-MES-1; first compound 1.265 µM) was 0.477 and the relative viability (SK-MES-1; first compound 4 µM) was 0.469.

Source: the supplement of paper PMC10307832
